How the values were obtained:
ASCT2 = target: T1, ASCT2 (Homo sapiens, UniProt Q15758); assay: Sodium-dependent [^14C]-L-alanine uptake in carcinoma cells, sensitivity to unlabelled L-alanine; format: cell-based; conditions: epithelial carcinoma cells; 3 mM unlabelled L-alanine; FIGS. 3E-3H
T1 construct: recognized the presence of LAT1 and ASCT2 in all cancer cell lines; endogenous in cells
T1 sequence (Q15758 1-541): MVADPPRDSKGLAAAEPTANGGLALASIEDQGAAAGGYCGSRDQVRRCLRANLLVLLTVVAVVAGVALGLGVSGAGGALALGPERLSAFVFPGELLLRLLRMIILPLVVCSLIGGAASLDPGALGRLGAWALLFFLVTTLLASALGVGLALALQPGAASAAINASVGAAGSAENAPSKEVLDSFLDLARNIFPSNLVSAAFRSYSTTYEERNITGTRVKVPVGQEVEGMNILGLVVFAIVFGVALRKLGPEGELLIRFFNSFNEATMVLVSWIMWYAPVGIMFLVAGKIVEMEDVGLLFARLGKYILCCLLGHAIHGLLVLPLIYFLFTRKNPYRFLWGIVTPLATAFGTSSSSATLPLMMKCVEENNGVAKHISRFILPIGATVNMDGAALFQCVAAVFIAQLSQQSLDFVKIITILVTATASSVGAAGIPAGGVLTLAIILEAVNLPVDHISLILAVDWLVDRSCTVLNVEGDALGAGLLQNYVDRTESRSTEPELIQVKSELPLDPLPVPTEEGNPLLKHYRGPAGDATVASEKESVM
Experimental: (§1) Cells were plated in 24-well plates (Sarstedt, Germany) and grown until confluence was reached. On the day of the experiment, Cell culture medium was aspirated and cells were preincubated for 15 min in Hanks' medium (ChCl 140 mM, KCl 5 mM, MgSO4.7H2O 0.8 mM, K2HPO4 0.33 mM, KH2PO4 0.44 mM, MgCl2.6H2O 1 mM, CaCl2) 0.025 mM, Tris-HCl 9.75 mM, pH 7.4). Uptake was initiated by the addition of Hanks' medium with 0.25 μM [^14C]-L-alanine in the absence and in the presence of 3 mM unlabeled L-alanin. During preincubation and incubation cells were continuously shaken and maintained at 37° C. Uptake was terminated after 1 min by rapid removal of uptake solution by means of a vacuum pump connected to a Pasteur pipette, followed by a rapid wash with Hanks' medium. Subsequently, cells were solubilized in 0.1% vol/vol Triton X-100 (dissolved in 5 mM Tris-HCl, pH 7.4), and radioactivity was measured by liquid scintillation counting.

LAT1 = target: T2, LAT1 (Homo sapiens, UniProt Q01650); assay: Sodium-independent [^14C]-L-leucine uptake in carcinoma cells, sensitivity to unlabelled L-leucine; format: cell-based; conditions: epithelial carcinoma cells; 3 mM unlabelled L-leucine; FIGS. 3A-3D
T2 construct: recognized the presence of LAT1 and ASCT2 in all cancer cell lines; endogenous in cells
T2 sequence (Q01650 whole entry): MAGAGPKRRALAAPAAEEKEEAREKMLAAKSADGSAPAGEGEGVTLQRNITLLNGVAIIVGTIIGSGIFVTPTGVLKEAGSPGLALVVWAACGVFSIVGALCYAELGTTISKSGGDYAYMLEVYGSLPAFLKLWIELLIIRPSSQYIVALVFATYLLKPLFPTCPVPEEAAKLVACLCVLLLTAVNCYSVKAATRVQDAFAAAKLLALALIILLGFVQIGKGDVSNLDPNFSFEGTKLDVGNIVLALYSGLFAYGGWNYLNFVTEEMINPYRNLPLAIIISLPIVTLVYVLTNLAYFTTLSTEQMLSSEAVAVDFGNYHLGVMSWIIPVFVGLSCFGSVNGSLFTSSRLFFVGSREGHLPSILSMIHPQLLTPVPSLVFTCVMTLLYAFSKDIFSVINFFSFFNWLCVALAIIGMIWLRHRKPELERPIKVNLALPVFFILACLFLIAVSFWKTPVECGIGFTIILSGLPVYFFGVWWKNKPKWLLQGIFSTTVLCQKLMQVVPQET
T2 sequence (P08195 102-630 partner): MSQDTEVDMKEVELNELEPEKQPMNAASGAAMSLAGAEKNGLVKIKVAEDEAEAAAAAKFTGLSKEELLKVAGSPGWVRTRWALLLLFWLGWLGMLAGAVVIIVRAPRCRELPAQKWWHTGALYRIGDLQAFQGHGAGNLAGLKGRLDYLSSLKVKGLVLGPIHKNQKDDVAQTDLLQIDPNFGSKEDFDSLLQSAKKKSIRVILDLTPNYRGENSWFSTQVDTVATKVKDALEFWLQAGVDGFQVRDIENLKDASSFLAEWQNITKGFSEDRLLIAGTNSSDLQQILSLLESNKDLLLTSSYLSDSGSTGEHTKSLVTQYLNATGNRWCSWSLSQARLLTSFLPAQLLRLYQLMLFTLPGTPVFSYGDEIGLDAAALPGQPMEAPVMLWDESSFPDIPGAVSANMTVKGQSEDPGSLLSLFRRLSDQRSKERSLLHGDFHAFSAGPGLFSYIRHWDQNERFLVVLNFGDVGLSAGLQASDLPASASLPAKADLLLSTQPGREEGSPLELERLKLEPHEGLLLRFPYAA
Experimental: as §1, with “experiment, cell” for “experiment, Cell”, “medium (NaCl” for “medium (ChCl”, “by” for “by the”, “μM [^14C]-L-leucine” for “μM [^14C]-L-alanine”, “unlabeled L-leucine.” for “unlabeled L-alanin.”

Sodium-dependent [^14C]-L-alanine (0.25 μM) uptake at initial rate of uptake (1 min) (ASCT2)	Sodium-independent [^14C]-L-leucine (0.25 μM) uptake at initial rate of uptake (1 min) (LAT1)	SMILES
significantly (P<0.01) reduced		C[C@H](N)C(=O)O [L-alanine]
	significantly (P<0.001) reduced	CC(C)C[C@H](N)C(=O)O [L-leucine]
